Laboratory results from patent US9434693B2, “Substituted pyrazoles as N-type calcium channel blockers” (Janssen Pharmaceutica NV, priority 2012, dated 2016).
Where two headings read alike, the source gives them in different places.

What was measured:
[1] = molecular target: N-type calcium channel (α1B (Cav2.2), β3 and α2δ subunits) in stable HEK cell line (Homo sapiens (Human), UniProt Q00975); experiment: Functional assay (FDSS calcium mobilization): antagonism of N-type calcium channel; format: cell-based; conditions: for IC50: KCl (50 mM) depolarization, six-point concentration-response; for inhibition at 0.33 µM: HEK293
Description: A stable cell line (HEK parent) co-expressing the α1B (Cav2.2), β3 and α2δ subunits of the N-type calcium channel subunits was used. These cells were routinely grown as monolayers in low glucose-containing Dulbecco's Modified Eagle Medium supplemented with 10% FBS, 2 mM L-glutamine, 100 I.U./mL penicillin, 100 μg/mL streptomycin, 400 μg/mL G418 and 200 μg/mL Zeocin (split ratio=1:5). Cells were maintained in 5% CO2 at 37° C. Compounds of Formula (I) were prepared as 10 mM stocks in DMSO from neat compound, if available. Otherwise, the 5 or 10 mM DMSO stock solutions provided in-house were used.
Calcium mobilization responses to KCl depolarization were evaluated by measuring the intensity of calcium-mediated fluorescent signal in the presence of BD Calcium Assay Dye (BD Biosciences, Franklin Lakes, N.J., U.S.A.), utilizing a Functional Drug Screening System (FDSS) by Hamamatsu Corporation (Bridgewater, N.J. U.S.A.).
Twenty-four hr prior to assay, cells were seeded in clear-base poly-D-lysine-coated 384-well plates (BD Biosciences) at a density of 5,000 cells per well in culture medium and grown overnight in 5% CO2 at 37° C. On the day of assay, growth media were removed, and cells were loaded with BD calcium assay dye (BD Biosciences) for 35 min at 37° C. under 5% CO2 and then for 25 min at room temp. Utilizing the FDSS, cells were exposed to representative compounds of Formula (I) at varying concentrations, and intracellular calcium was measured for 5 min prior to the addition of 50 mM KCl for an additional 3 min of measurement.
IC50 values for representative compounds of Formula (I) were determined from six-point concentration-response experiments and represent the concentration of said compound required to inhibit 50% of the maximal response. Maximal fluorescence intensity (FI) achieved upon addition of 50 mM KCl was exported from the FDSS software and further analyzed using GraphPad Prism 3.02 (Graph Pad Software Inc., San Diego, Calif., U.S.A.). Data were normalized to the maximum average counts from quadruplicate wells for each condition in the presence of 50 mM KCl and to the minimum average counts in the presence of buffer. Theoretical curves were generated using nonlinear regression curve-fitting analysis of either sigmoidal concentration-response or sigmoidal concentration-response (variable slope), and the IC50 values with the best-fit curve determined by GraphPad Prism were reported.

N-type calcium channel = N-type calcium channel (Homo sapiens (Human), UniProt Q00975); experiment: Automated electrophysiology assay (QPatch-HT whole-cell patch clamp); format: cell-based
Description: Cells were grown in T175 flasks to 50%-90% confluence. At the time of use, cells were enzymatically treated with Detachin (Genlantis, San Diego, Calif. USA), centrifuged, rinsed, and resuspended in 293 SFM II media (Life Technologies, Grand Island, N.Y. U.S.A.) supplemented with 25 mM HEPES (Sigma-Aldrich, St. Louis, Mo. U.S.A.) to a concentration of 2-3×10^6 cells/mL. Cells were added to the automated cell preparation station on the QPatch-HT (Sophion Biosciences, North Brunswick, N.J. U.S.A.), and following a 10- to30-min recovery period with gentle stirring, the assay protocol was initiated. During the automated cell preparation, cells were collected, centrifuged and resuspended in an extracellular (EC) solution containing 132 mM NaCl, 1.8 mM CaCl2, 5.4 mM KCl, 0.8 mM MgCl2, 10 mM glucose, and 10 mM HEPES (pH=7.4), adjusted with sucrose to approximately 315 m0sm. The QPlate was primed with an intracellular solution containing 135 mM CsCl, 10 mM EGTA, 4 MgATP, 0.3 NaGTP, and 20 mM HEPES (pH=7.2), adjusted to approximately 290 m0sm with deionized water and the EC solution. Cells were added to the prepared QPlate wells by robotic pipettes of the QPatch-HT.
For cells determined to be in stable whole-cell patch clamp, the EC solution was replaced with a barium (Ba)/triethylammonium (TEA) solution containing 140 mM TEA-Cl, 10 mM BaCl2, 0.8 mM MgCl2, 10 mM glucose and 10 mM HEPES (pH=7.4). High (40 mM) BaCl2 concentrations were made with adjustments to TEA-Cl (90 mM) to maintain the osmolarity. From a resting potential of −80 mV, a train of depolarizing pulses (15 pulses at 5 Hz, +20 mV) was delivered to the cell once every 30 sec for […], and the resulting currents were measured during a control period (no compound). This protocol was repeated for each subsequent addition of control buffer with or without compound (three periods total, each with four trains). The current generated in the 1st and 15th pulses of the last train of each period in the presence of each drug concentration was normalized to the current generated during the control period at the respective pulses (representing low- and high-frequency stimulation, respectively). Data from both the second and third drug application periods were analyzed for each cell. A final addition of Ba/TEA solution containing 60-100 μM CdCl2 was made to block all N-type current and to “zero” the currents for each cell. All buffer/compound additions were made using a “spitting” feature of the QPatch-HT, which added three repetitions of 5 μL solution at the beginning of each recording period.
To examine closed-state inactivation, cells were subjected to a channel-activating 50-msec depolarizing step pulse from −80 to +10 mV, followed by a 5-sec nonactivating step to voltages ranging from −130 to −60 mV in 10 mV increments and then a 50-ms step from −80 to +10 mV to assess the remaining current. Currents from the activating voltage pulse were normalized to the peak value of the test pulse following the −130 mV step and fit to a Boltzman equation to obtain the V1/2. Roscovitine (Sigma-Aldrich) was prepared as a 100 mM stock in dimethyl sulfoxide and diluted to the indicated working concentrations. […]. Compounds of Formula (I) were diluted first into dimethyl sulfoxide and then into 10% pluronic F-127 in water (Life Technologies), sonicated for 1 min and diluted into EC buffer. Vehicle controls were run in parallel in all experiments.
Unless otherwise indicated, statistics for comparing among electrophysiological results utilized a one-way analysis of variance with Fisher's least squares determination test for pair-wise comparison.

[2] = high-frequency stimulation (15th pulse of train, 5 Hz), read-out: QPatch at High Frequency % Inhibition at 0.1 μM
[3] = low-frequency stimulation (1st pulse of train), read-out: QPatch at Low Frequency % Inhibition at 0.1 μM

Chain of N-type calcium channel (α1B (Cav2.2), β3 and α2δ subunits) in stable HEK cell line (Q00975 whole entry): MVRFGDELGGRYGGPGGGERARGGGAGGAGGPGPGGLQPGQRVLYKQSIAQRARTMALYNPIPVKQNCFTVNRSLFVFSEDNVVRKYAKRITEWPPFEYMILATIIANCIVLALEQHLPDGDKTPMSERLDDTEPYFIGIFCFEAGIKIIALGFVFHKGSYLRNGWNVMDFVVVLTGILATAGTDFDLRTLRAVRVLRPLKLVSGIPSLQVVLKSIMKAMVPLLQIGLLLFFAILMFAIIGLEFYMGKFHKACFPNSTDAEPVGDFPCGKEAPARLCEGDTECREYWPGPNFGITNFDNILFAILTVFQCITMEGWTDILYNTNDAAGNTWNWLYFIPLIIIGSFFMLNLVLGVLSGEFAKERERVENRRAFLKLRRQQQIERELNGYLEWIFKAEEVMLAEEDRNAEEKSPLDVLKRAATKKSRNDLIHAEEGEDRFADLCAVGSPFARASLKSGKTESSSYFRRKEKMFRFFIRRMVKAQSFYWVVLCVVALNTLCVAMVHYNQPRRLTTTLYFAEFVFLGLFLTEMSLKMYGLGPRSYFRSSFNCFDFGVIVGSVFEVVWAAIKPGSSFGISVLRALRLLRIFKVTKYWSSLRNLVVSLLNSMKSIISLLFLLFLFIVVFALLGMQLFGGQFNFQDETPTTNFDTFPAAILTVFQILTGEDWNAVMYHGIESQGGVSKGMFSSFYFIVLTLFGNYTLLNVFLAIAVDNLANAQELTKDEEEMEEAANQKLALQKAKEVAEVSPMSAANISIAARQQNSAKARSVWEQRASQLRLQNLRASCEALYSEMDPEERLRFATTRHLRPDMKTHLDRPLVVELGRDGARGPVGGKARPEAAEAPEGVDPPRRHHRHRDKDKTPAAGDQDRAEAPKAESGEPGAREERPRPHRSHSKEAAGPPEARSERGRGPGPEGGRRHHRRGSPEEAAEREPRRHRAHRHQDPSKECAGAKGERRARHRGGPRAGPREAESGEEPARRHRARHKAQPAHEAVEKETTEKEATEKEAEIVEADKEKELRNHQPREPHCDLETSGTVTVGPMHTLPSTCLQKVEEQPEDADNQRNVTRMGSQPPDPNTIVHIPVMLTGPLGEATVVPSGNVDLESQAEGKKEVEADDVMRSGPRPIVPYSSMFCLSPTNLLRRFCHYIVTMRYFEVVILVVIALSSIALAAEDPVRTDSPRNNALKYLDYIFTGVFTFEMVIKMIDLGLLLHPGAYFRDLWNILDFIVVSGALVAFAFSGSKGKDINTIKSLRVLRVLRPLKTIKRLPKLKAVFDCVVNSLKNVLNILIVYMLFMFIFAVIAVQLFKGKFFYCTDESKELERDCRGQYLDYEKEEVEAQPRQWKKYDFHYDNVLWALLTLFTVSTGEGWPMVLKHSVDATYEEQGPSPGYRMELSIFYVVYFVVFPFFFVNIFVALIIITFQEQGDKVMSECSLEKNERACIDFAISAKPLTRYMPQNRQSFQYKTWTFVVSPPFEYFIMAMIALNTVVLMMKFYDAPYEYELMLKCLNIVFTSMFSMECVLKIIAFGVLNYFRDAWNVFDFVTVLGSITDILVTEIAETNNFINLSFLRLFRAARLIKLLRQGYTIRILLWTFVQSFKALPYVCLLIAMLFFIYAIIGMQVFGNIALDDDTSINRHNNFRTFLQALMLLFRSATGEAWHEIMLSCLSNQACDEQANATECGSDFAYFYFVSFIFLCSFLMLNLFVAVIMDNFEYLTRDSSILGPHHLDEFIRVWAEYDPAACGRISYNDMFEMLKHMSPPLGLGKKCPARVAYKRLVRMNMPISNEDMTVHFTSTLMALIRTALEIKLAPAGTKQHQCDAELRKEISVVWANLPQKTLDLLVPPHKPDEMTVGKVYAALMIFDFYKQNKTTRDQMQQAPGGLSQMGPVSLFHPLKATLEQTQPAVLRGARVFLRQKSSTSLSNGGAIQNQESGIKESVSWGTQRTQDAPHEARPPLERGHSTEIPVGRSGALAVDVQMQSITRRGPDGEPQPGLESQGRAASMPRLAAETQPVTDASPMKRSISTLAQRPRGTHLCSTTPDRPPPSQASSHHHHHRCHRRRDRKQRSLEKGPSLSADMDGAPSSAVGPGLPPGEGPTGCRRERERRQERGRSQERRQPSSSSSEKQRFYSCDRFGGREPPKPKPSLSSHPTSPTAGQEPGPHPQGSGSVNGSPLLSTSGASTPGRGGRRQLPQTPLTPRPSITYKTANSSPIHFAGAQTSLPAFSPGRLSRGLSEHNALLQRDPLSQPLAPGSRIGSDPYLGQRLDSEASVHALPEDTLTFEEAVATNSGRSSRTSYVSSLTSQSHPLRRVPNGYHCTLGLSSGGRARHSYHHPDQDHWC
Chain of N-type calcium channel (α1B (Cav2.2), β3 and α2δ subunits) in stable HEK cell line (P54284 whole entry partner): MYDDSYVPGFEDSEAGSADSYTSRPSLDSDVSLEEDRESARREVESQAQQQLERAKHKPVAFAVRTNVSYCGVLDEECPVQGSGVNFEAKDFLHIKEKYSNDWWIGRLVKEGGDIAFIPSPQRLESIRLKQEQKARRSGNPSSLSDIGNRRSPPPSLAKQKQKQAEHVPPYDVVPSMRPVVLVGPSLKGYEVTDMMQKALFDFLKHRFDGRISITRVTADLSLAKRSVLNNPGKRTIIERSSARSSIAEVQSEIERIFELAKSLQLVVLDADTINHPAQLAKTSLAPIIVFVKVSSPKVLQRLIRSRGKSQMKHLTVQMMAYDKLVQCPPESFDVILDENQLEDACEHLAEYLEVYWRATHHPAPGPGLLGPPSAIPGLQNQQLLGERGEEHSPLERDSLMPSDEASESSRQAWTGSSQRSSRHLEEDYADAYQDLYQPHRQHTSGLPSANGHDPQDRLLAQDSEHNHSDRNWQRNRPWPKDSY
Chain of N-type calcium channel (α1B (Cav2.2), β3 and α2δ subunits) in stable HEK cell line (P54289 25-1103 partner): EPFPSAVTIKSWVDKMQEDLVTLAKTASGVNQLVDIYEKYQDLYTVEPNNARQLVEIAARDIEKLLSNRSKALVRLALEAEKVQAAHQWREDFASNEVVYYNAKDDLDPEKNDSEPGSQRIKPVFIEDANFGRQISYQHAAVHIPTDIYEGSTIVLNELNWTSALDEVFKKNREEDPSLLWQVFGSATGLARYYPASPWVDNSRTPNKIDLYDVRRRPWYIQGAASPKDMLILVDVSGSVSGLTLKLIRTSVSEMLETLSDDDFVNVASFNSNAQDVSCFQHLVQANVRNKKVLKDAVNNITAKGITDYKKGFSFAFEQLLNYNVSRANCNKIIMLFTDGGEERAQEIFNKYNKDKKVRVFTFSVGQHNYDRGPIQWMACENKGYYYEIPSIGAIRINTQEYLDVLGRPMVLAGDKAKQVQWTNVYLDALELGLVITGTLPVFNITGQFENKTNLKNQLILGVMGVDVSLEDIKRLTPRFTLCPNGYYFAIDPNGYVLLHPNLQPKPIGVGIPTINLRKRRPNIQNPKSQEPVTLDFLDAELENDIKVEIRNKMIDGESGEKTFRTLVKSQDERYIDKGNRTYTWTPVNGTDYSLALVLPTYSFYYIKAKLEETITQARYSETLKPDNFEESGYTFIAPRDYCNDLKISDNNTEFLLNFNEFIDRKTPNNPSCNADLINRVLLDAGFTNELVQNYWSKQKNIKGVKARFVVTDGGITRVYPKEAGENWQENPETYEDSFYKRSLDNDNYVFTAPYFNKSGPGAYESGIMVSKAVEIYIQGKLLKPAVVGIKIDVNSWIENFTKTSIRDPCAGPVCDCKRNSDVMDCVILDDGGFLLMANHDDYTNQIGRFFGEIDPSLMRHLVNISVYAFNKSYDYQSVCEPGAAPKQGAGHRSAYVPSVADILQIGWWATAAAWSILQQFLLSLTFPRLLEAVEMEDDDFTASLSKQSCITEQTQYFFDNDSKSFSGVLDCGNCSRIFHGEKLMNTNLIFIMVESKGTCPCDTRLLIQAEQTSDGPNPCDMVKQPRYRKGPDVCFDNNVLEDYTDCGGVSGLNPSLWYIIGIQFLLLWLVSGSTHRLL
Chain of N-type calcium channel (Q00975 whole entry): as the sequence (Q00975 whole entry) above
Chain of N-type calcium channel (P54284 whole entry partner): as the sequence (P54284 whole entry partner) above
Chain of N-type calcium channel (P54289 25-1103 partner): as the sequence (P54289 25-1103 partner) above

## CC(C)Oc1ccccc1-n1nc(OC2CCN(S(C)(=O)=O)CC2)cc1-c1ccc(Cl)cc1 [Compound 20, 4-({5-(4-Chlorophenyl)-1-[2-(1-methylethoxy)phenyl]-1H-pyrazol-3-yl}oxy)-1-(methylsulfonyl)piperidine]
[1]
  IC50: 0.0215 µM
N-type calcium channel; [2]
  inhibition at 0.1 µM: 37%
N-type calcium channel; [3]
  inhibition at 0.1 µM: 24%

## COc1ccc(-c2cc(OC3CC(C)(C)OC(C)(C)C3)nn2-c2ccccc2OC)cc1 [Compound 31, 1-(2-Methoxyphenyl)-5-(4-methoxyphenyl)-3-[(2,2,6,6-tetramethyltetrahydro-2H-pyran-4-yl)oxy]-1H-pyrazole]
[1]; FDSS, 0.33 μM compound
  inhibition at 0.33 µM: 97%
[1]
  IC50: 0.0094 µM
N-type calcium channel; [2]
  inhibition at 0.1 µM: 44%
N-type calcium channel; [3]
  inhibition at 0.1 µM: 28%

## COc1ccccc1-n1nc(OC2CN(S(=O)(=O)c3c(C)noc3C)C2)cc1-c1ccc(Cl)cc1 [Compound 30, 4-[(3-{[5-(4-Chlorophenyl)-1-(2-methoxyphenyl)-1H-pyrazol-3-yl]oxy}azetidin-1-yl)sulfonyl]-3,5-dimethylisoxazole]
[1]; FDSS, 0.33 μM compound
  inhibition at 0.33 µM: 93%
[1]
  IC50: 0.008 µM
N-type calcium channel; [2]
  inhibition at 0.1 µM: 53%
N-type calcium channel; [3]
  inhibition at 0.1 µM: 30%

## COc1ccccc1-n1nc(OC2CN(C(=O)N(C)OC)C2)cc1-c1ccc(Cl)cc1 [Compound 29, 3-{[5-(4-Chlorophenyl)-1-(2-methoxyphenyl)-1H-pyrazol-3-yl]oxy}-N-methoxy-N-methylazetidine-1-carboxamide]
[1]; FDSS, 0.33 μM compound
  inhibition at 0.33 µM: 94%
[1]
  IC50: 0.014 µM
N-type calcium channel; [2]
  inhibition at 0.1 µM: 1%
N-type calcium channel; [3]
  inhibition at 0.1 µM: -24%

## COc1ccccc1-n1nc(OC2CCN(S(=O)(=O)C(C)C)CC2)cc1-c1ccc(Cl)cc1 [Compound 21, 4-{[5-(4-Chlorophenyl)-1-(2-methoxyphenyl)-1H-pyrazol-3-yl]oxy}-1-[(1-methylethyl)sulfonyl]piperidine]
[1]; FDSS, 0.33 μM compound
  inhibition at 0.33 µM: 95%
[1]
  IC50: 0.036 µM
N-type calcium channel; [2]
  inhibition at 0.1 µM: 23%
N-type calcium channel; [3]
  inhibition at 0.1 µM: 15%

## COc1ccccc1-n1nc(OC2CCN(S(=O)(=O)C3CC3)CC2)cc1-c1ccc(Cl)cc1 [Compound 15, 4-{[5-(4-Chlorophenyl)-1-(2-methoxyphenyl)-1H-pyrazol-3-yl]oxy}-1-(cyclopropylsulfonyl)piperidine]
[1]
  IC50: 0.009 µM
N-type calcium channel; [2]
  inhibition at 0.1 µM: 55%
N-type calcium channel; [3]
  inhibition at 0.1 µM: 25%

## COc1ccccc1-n1nc(OC2CN(S(C)(=O)=O)C2)cc1-c1ccc(Cl)cc1 [Compound 26, 5-(4-Chlorophenyl)-1-(2-methoxyphenyl)-3-{[1-(methylsulfonyl)azetidin-3-yl]oxy}-1H-pyrazole]
[1]; FDSS, 0.33 μM compound
  inhibition at 0.33 µM: 91%
[1]
  IC50: 0.031 µM
N-type calcium channel; [2]
  inhibition at 0.1 µM: 40%
N-type calcium channel; [3]
  inhibition at 0.1 µM: 37%

## COc1ccc(-c2cc(O[C@H]3CC(C)(C)[S@@+]([O-])C(C)(C)C3)nn2-c2ccccc2OC)cc1 [Compound 35, (1s,4s)-4-((1-(2-methoxyphenyl)-5-(4-methoxyphenyl)-1H-pyrazol-3-yl)oxy)-2,2,6,6-tetramethyltetrahydro-2H-thiopyran 1-oxide]
[1]; FDSS, 0.33 μM compound
  % Inhibition (%) at 0.33 μM: 91%
[1]
  IC50: 0.0076 µM

## COc1ccccc1-n1nc(O[C@H]2CC[C@@H](NC(=O)OC(C)(C)C)CC2)cc1-c1ccc(Cl)cc1 [Compound 11, tert-Butyl (cis-4-{[5-(4-chlorophenyl)-1-(2-methoxyphenyl)-1H-pyrazol-3-yl]oxy}cyclohexyl)carbamate]
[1]
  IC50: 0.062 µM

## CC(C)Oc1ccccc1-n1nc(OC2CCN(S(=O)(=O)C(C)C)CC2)cc1-c1ccc(Cl)cc1 [Compound 28, 4-({5-(4-Chlorophenyl)-1-[2-(1-methylethoxy)phenyl]-1H-pyrazol-3-yl}oxy)-1-[(1-methylethyl)sulfonyl]piperidine]
[1]; FDSS, 0.33 μM compound
  inhibition at 0.33 µM: 96%
[1]
  IC50: 0.007 µM

## COc1ccccc1-n1nc(OC2CCS(=O)(=O)CC2)cc1-c1ccc(Cl)cc1 [Compound 10, 5-(4-Chlorophenyl)-3-[(1,1-dioxidotetrahydro-2H-thiopyran-4-yl)oxy]-1-(2-methoxyphenyl)-1H-pyrazole]
[1]
  IC50: 0.03 µM

## COc1ccccc1-n1nc(OC2CC(C)(C)OC(C)(C)C2)cc1-c1ccc(C#N)cc1 [Compound 43, 4-{1-(2-Methoxyphenyl)-3-[(2,2,6,6-tetramethyltetrahydro-2H-pyran-4-yl)oxy]-1H-pyrazol-5-yl}benzonitrile]
[1]; FDSS, 0.33 μM compound
  inhibition at 0.33 µM: 90%
[1]
  IC50: 0.0072 µM

## CCc1ccccc1-n1nc(OC2CCN(C(=O)OC(C)(C)C)CC2)cc1-c1ccc(Cl)cc1 [Compound 18, tert-Butyl 4-{[5-(4-chlorophenyl)-1-(2-ethylphenyl)-1H-pyrazol-3-yl]oxy}piperidine-1-carboxylate]
[1]
  IC50: 0.05 µM

## COc1ccc(-c2cc(OC3CC(C)(C)S(=O)(=O)C(C)(C)C3)nn2-c2ccccc2OC)cc1 [Compound 33, 1-(2-Methoxyphenyl)-5-(4-methoxyphenyl)-3-[(2,2,6,6-tetramethyl-1,1-dioxidotetrahydro-2H-thiopyran-4-yl)oxy]-1H-pyrazole]
[1]; FDSS, 0.33 μM compound
  inhibition at 0.33 µM: 94%
[1]
  IC50: 0.003 µM

## COc1ccccc1-n1nc(OC2CCOCC2)cc1-c1ccc(Cl)cc1 [Compound 6, 5-(4-Chlorophenyl)-1-(2-methoxyphenyl)-3-(tetrahydro-2H-pyran-4-yloxy)-1H-pyrazole]
[1]; FDSS, 0.33 μM compound
  inhibition at 0.33 µM: 98%
[1]
  IC50: 0.015 µM

## COc1ccccc1-n1nc(OC2CCN(S(=O)(=O)C(F)(F)F)CC2)cc1-c1ccc(Cl)cc1 [Compound 14, 4-{[5-(4-Chlorophenyl)-1-(2-methoxyphenyl)-1H-pyrazol-3-yl]oxy}-1-[(trifluoromethyl)sulfonyl]piperidine]
[1]
  IC50: 0.024 µM
